Results: patent EP4483954A1 (Masarykova Univerzita, priority 2023, dated 2025)

Biological target: T1, Haspin (h) (Homo sapiens, UniProt Q8TF76)
T1 construct: purchased Eurofins (KinaseProfiler)
T1 sequence (Q8TF76 1-798): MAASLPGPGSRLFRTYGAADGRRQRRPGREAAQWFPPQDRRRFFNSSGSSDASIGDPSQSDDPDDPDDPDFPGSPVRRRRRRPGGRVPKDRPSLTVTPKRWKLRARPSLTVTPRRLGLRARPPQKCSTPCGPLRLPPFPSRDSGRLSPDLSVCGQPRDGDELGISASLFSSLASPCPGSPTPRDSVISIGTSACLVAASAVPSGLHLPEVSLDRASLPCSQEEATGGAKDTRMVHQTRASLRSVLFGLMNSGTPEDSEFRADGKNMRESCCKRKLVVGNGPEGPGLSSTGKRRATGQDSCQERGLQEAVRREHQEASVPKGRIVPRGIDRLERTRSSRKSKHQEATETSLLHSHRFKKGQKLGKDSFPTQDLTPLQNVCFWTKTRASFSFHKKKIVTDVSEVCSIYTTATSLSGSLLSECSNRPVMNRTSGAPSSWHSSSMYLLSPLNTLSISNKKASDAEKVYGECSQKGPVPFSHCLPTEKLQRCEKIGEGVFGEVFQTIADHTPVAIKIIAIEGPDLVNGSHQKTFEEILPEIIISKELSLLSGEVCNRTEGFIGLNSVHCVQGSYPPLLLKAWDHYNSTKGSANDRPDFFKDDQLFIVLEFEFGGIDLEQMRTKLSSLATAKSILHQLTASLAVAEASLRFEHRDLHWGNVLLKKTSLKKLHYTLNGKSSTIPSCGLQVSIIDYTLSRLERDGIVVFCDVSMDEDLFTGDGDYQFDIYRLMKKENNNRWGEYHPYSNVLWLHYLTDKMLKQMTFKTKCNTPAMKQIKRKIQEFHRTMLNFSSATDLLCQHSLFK
Assay: radiometric kinase assay (KinaseProfiler, Eurofins), Haspin
Format: biochemical
Conditions: in vitro radiometric kinase assay, tested at 1 nM to 10 000 nM, no pre-incubation; read-out: inhibitory activities (IC50 values) Haspin
Experimental: The compounds were profiled in the radiometric assays (KinaseProfiler, Eurofins).
Briefly, kinases were diluted in the buffer shown below prior to addition to the reaction mix: • CDKL3, TAF1L: 20 mM Tris/HCl pH 8.5, 0.2 mM EDTA, 0.1% β-mercaptoethanol, 0.01% Brij-35, 5% glycerol, 1 mg/ml BSA; • Haspin: 15 mM MOPS, 0.75 mM EDTA, 0.0075% Brij-35, 3.75% Glycerol, 150 mM NaCl, 0.1% β-mercaptoethanol, 1 mg/mLBSA; • CDKL4, CLK2, PIM1, TRB2: […], 1 mM EDTA, 0.01% Brij-35, 5% Glycerol, 0.1% β-mercaptoethanol, 1 mg/mL BSA.
All compounds were prepared to 50x final assay concentration in 100% DMSO. This working stock of the compound was added to the assay well as the first component in the reaction, followed by the remaining components as detailed in the general assay protocols below. There was no pre-incubation step between the compound and the kinase prior to initiation of the reaction.
Haspin (h) was incubated with 8 mM MOPS pH 7.0, 0.2 mM EDTA, 500 µM RARTLSFAEPG (SEQ ID NO. 3), 10 mM magnesium acetate and γ-^33P-ATP (specific activity and concentration as required). The reaction was initiated by the addition of the Mg/ATP mix. After incubation for 40 minutes at room temperature, the reaction was stopped by the addition of phosphoric acid to a concentration of 0.5%. An aliquot of the reaction was then spotted onto a filter and washed four times for 4 minutes in 0.425% phosphoric acid and once in methanol prior to drying and scintillation counting.
Kinase activity data were expressed as the percent remaining kinase activity in tested samples compared to the vehicle (DMSO) reactions. The compounds were tested at the following concentrations: 1 nM, 3 nM, 10 nM, 30 nM, 100 nM, 300 nM, 1000 nM, 3000 nM, and 10 000 nM; IC50 values and curve fits were then obtained.

SMILES | IC50
CC(C)(C)n1ccc(-c2ccc3scc(-c4ccncc4)c3n2)n1 [Preparative Example 80, 5-(1-(tert-butyl)-1H-pyrazol-3-yl)-3-(pyridin-4-yl)thieno[3,2-b]pyridine] | 3 to 10 µM
CCn1ccc(-c2ccc3scc(-c4ccncc4)c3n2)n1 [Preparative Example 87, 5-(1-ethyl-1H-pyrazol-3-yl)-3-(pyridin-4-yl)thieno[3,2-b]pyridine] | 0.5 to 3 µM
c1ccc(-n2ccc(-c3ccc4scc(-c5ccncc5)c4n3)n2)cc1 [Preparative Example 88, 5-(1-phenyl-1H-pyrazol-3-yl)-3-(pyridin-4-yl)thieno[3,2-b]pyridine] | 0.5 to 3 µM
c1ccc(Cn2ccc(-c3ccc4scc(-c5ccncc5)c4n3)n2)cc1 [Preparative Example 89, 5-(1-benzyl-1H-pyrazol-3-yl)-3-(pyridin-4-yl)thieno[3,2-b]pyridine] | 0.5 to 3 µM
c1cc(-c2csc3ccc(-c4ccns4)nc23)ccn1 [Preparative Example 92, 5-(isothiazol-5-yl)-3-(pyridin-4-yl)thieno[3,2-b]pyridine] | 0.5 to 3 µM
Cn1ncnc1-c1ccc2scc(-c3ccncc3)c2n1 [Preparative Example 96, 5-(1-methyl-1H-1,2,4-triazol-5-yl)-3-(pyridin-4-yl)thieno[3,2-b]pyridine] | 3 to 10 µM
Cn1cc(Nc2ccc3scc(-c4ccncc4)c3n2)cn1 [Preparative Example 97, N-(1-methyl-1H-pyrazol-4-yl)-3-(pyridin-4-yl)thieno[3,2-b]pyridin-5-amine] | 0.1 to 0.499 µM
c1cc(-c2csc3ccc(Nc4cn[nH]c4)nc23)ccn1 [Preparative Example 98, N-(1H-pyrazol-4-yl)-3-(pyridin-4-yl)thieno[3,2-b]pyridin-5-amine] | 0.02 to 0.099 µM
CN(c1ccc2scc(-c3ccncc3)c2n1)c1ccn(C)n1 [Preparative Example 100, N-methyl-N-(1-methyl-1H-pyrazol-3-yl)-3-(pyridin-4-yl)thieno[3,2-b]pyridin-5-amine] | 0.5 to 3 µM
Cc1cc(Nc2ccc3scc(-c4ccncc4)c3n2)nn1C [Preparative Example 102, N-(1,5-dimethyl-1H-pyrazol-3-yl)-3-(pyridin-4-yl)thieno[3,2-b]pyridin-5-amine] | 0.1 to 0.499 µM
Cn1nc(Nc2ccc3scc(-c4ccncc4)c3n2)cc1NC(=O)OC(C)(C)C [Preparative Example 103, tert-butyl (1-methyl-3-((3-(pyridin-4-yl)thieno[3,2-b]pyridin-5-yl)-amino)-1H-pyrazol-5-yl)carbamate] | 3 to 10 µM
Cn1nc(Nc2ccc3scc(-c4ccncc4)c3n2)cc1N [Preparative Example 104, 1-methyl-N3-(3-(pyridin-4-yl)thieno[3,2-b]pyridin-5-yl)-1H-pyrazole-3,5-diamine] | 0.5 to 3 µM
CCOC(=O)c1cc(Nc2ccc3scc(-c4ccncc4)c3n2)nn1C [Preparative Example 105, Ethyl 1-methyl-3-((3-(pyridin-4-yl)thieno[3,2-b]pyridin-5-yl)amino)-1H-pyrazole-5-carboxylate] | 3 to 10 µM
CSc1cn(C)nc1Nc1ccc2scc(-c3ccncc3)c2n1 [Preparative Example 106, N-(1-methyl-4-(methylthio)-1H-pyrazol-3-yl)-3-(pyridin-4-yl)thieno[3,2-b]pyridin-5-amine] | 0.1 to 0.499 µM
CCOC(=O)c1cn(C)nc1Nc1ccc2scc(-c3ccncc3)c2n1 [Preparative Example 107, Ethyl 1-methyl-3-((3-(pyridin-4-yl)thieno[3,2-b]pyridin-5-yl)amino)-1H-pyrazole-4-carboxylate] | 3 to 10 µM
Cn1ccc(CNc2ccc3scc(-c4ccncc4)c3n2)n1 [Preparative Example 108, N-((1-methyl-1H-pyrazol-3-yl)methyl)-3-(pyridin-4-yl)thieno[3,2-b]pyridin-5-amine] | 3 to 10 µM
Cn1ccc(Oc2ccc3scc(-c4ccncc4)c3n2)n1 [Preparative Example 110, 5-((1-methyl-1H-pyrazol-3-yl)oxy)-3-(pyridin-4-yl)thieno[3,2-b]pyridine] | 0.1 to 0.499 µM
c1ccc(-c2ccc3scc(-c4ccncc4)c3n2)nc1 [Preparative Example 111, 5-(pyridin-2-yl)-3-(pyridin-4-yl)thieno[3,2-b]pyridine] | 0.1 to 0.499 µM
c1cnc(-c2ccc3scc(-c4ccncc4)c3n2)nc1 [Preparative Example 112, 3-(pyridin-4-yl)-5-(pyrimidin-2-yl)thieno[3,2-b]pyridine] | 3 to 10 µM
c1cnnc(Nc2ccc3scc(-c4ccncc4)c3n2)c1 [Preparative Example 113, N-(pyridazin-3-yl)-3-(pyridin-4-yl)thieno[3,2-b]pyridin-5-amine] | 0.1 to 0.499 µM
c1cc(-c2csc3ccc(Nc4ccncn4)nc23)ccn1 [Preparative Example 114, 3-(pyridin-4-yl)-N-(pyrimidin-4-yl)thieno[3,2-b]pyridin-5-amine] | 0.5 to 3 µM
c1cnc2c(-c3ccc4scc(-c5ccncc5)c4n3)cnn2c1 [Preparative Example 115, 5-(pyrazolo[1,5-a]pyrimidin-3-yl)-3-(pyridin-4-yl)thieno[3,2-b]pyridine] | 0.5 to 3 µM
CC(C)(C)OC(=O)N1CCOC(COc2ccc3scc(-c4ccncc4)c3n2)C1 (stereo not drawn) [Preparative Example 116, tert-butyl 2-(((3-(pyridin-4-yl)thieno[3,2-b]pyridin-5-yl)oxy)-methyl)morpholine-4-carboxylate] | 3 to 10 µM
CC(C)(C)OC(=O)N1CCO[C@H](COc2ccc3scc(-c4ccncc4)c3n2)C1 [Preparative Example 117, tert-butyl (S)-2-(((3-(pyridin-4-yl)thieno[3,2-b]pyridin-5-yl)oxy)-methyl)morpholine-4-carboxylate] | 3 to 10 µM
c1cc(-c2csc3ccc(OCC4CNCCO4)nc23)ccn1 (stereo not drawn) [Preparative Example 118, 2-(((3-(pyridin-4-yl)thieno[3,2-b]pyridin-5-yl)oxy)methyl)-morpholine] | 0.1 to 0.499 µM
Cn1ccc(-c2ccc3scc(-c4ccns4)c3n2)n1 [Preparative Example 119, 3-(isothiazol-5-yl)-5-(1-methyl-1H-pyrazol-3-yl)thieno[3,2-b]pyridine] | 0.1 to 0.499 µM
Cn1cc(C#N)c(Nc2ccc3scc(-c4ccns4)c3n2)n1 [Preparative Example 120, 3-((3-(isothiazol-5-yl)thieno[3,2-b]pyridin-5-yl)amino)-1-methyl-1H-pyrazole-4-carbonitrile] | 0.02 to 0.099 µM
c1ccc(-c2csc3ccc(-c4cn[nH]c4)nc23)cc1 [Preparative Example 121, 3-phenyl-5-(1H-pyrazol-4-yl)thieno[3,2-b]pyridine] | 0.1 to 0.499 µM
CCOC(=O)c1cn(C)nc1Nc1ccc2scc(-c3ccnc(NC(=O)OC(C)(C)C)c3)c2n1 [Preparative Example 126, Ethyl 3-((3-(2-((tert-butoxycarbonyl)amino)pyridin-4-yl)thieno[3,2-b]pyridin-5-yl)amino)-1-methyl-1H-pyrazole-4-carboxylate] | 3 to 10 µM
COC(=O)c1cn(C)nc1Nc1ccc2scc(-c3ccnc(CN)c3)c2n1 [Preparative Example 128, Methyl 3-((3-(2-(aminomethyl)pyridin-4-yl)thieno[3,2-b]pyridin-5-yl)amino)-1-methyl-1H-pyrazole-4-carboxylate] | 3 to 10 µM
